Test results: patent publication US7595063B2, “Compressed tablet formulation” (Merck & Co., Inc., priority 1998, dated 2009)

Experiment: crystallinity of efavirenz upon compression
Format: physicochemical
Details: compression into tablet

crystallinity upon compression: loses crystallinity upon compression
Compound: O=C1Nc2ccc(Cl)cc2[C@@](C#CC2CC2)(C(F)(F)F)O1 [efavirenz, (−)-6-chloro-4-cyclopropylethynyl-4-trifluoromethyl-1,4-dihydro-2H-3,1-benzoxazin-2-one]
